Values of other authors in patent US20260027339A1, “FLEXIBLE IMPLANTABLE DEPOTS FOR CONTROLLED DRUG RELEASE” (Foundry Therapeutics, Inc., priority 2023, published 2026).
Where two headings read alike, the source gives them in different places.

Key:
[1] = at 25° C.
[2] = system: rats

Structure (SMILES) | vapor pressure [1] | LD50 ([2]; intravenous) [mg/kg] | LD50 ([2]; subcutaneous) [mg/kg]
CCCCN1CCCCC1C(=O)Nc1c(C)cccc1C (stereo not drawn) [bupivacaine] |  | 6 | 43
CCOC(=O)c1ccccc1C(=O)OCC [diethyl phthalate] | 0.28 Pa |  | 
CC(=O)OCC(COC(C)=O)OC(C)=O [triacetin] | 0.33 Pa |  | 

Now from value to molecule, other results behind:

vapor pressure [1] | Structure (SMILES) | LD50 ([2]; intravenous) [mg/kg] | LD50 ([2]; subcutaneous) [mg/kg]
12.53 | OCc1ccccc1 [benzyl alcohol] |  | 
0.03 Pa | O=C(OCc1ccccc1)c1ccccc1 [benzyl benzoate] |  | 
